“And” between values parts separate entries of the source, which are not always exact repeats. Equal entries are not always repeated.
Tested on: Hs578T complex spheroid growth, percent test/control
Assay: Anticancer human tumor Hs578T cell line growth inhibition [AhR];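 further: luminescent viability signal as a proxy for spheroid growth; spheroids exposed to agents for one week after three days of growth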
Details: for viability, T/C: stronger effect = lower value
In short: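 Spheroids combined tumor cells with HUVEC endothelial cells and human MSCs as stroma. AhR antagonists were paired with standard or investigational drugs, each dosed in half-log steps down from near clinical Cmax, or from 10 microM where Cmax was unknown.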

[1] = curve of first compound, second compound 0.1 µM
[2] = curve of first compound, second compound 0.316 µM
[3] = curve of first compound, second compound 1 µM
[4] = curve of first compound, second compound 3.16 µM
[5] = curve of first compound, second compound 10 µM
[6] = second compound 0.1 µM, first compound 0.0316 µM
[7] = second compound 0.1 µM, first compound 0.1 µM
[8] = second compound 0.1 µM, first compound 0.316 µM
[9] = second compound 0.1 µM, first compound 1 µM
[10] = second compound 0.1 µM, first compound 3.16 µM
[11] = second compound 0.1 µM, first compound 10 µM
[12] = second compound 0.316 µM, first compound 0.0316 µM
[13] = second compound 0.316 µM, first compound 0.1 µM
[14] = second compound 0.316 µM, first compound 0.316 µM
[15] = second compound 0.316 µM, first compound 1 µM
[16] = second compound 0.316 µM, first compound 3.16 µM
[17] = second compound 0.316 µM, first compound 10 µM
[18] = second compound 1 µM, first compound 0.0316 µM
[19] = second compound 1 µM, first compound 0.1 µM
[20] = second compound 1 µM, first compound 0.316 µM
[21] = second compound 1 µM, first compound 1 µM
[22] = second compound 1 µM, first compound 3.16 µM
[23] = second compound 1 µM, first compound 10 µM
[24] = second compound 3.16 µM, first compound 0.0316 µM
[25] = second compound 3.16 µM, first compound 0.1 µM
[26] = second compound 3.16 µM, first compound 0.316 µM
[27] = second compound 3.16 µM, first compound 1 µM
[28] = second compound 3.16 µM, first compound 3.16 µM
[29] = second compound 3.16 µM, first compound 10 µM
[30] = second compound 10 µM, first compound 0.0316 µM
[31] = second compound 10 µM, first compound 0.1 µM
[32] = second compound 10 µM, first compound 0.316 µM
[33] = second compound 10 µM, first compound 1 µM
[34] = second compound 10 µM, first compound 3.16 µM
[35] = second compound 10 µM, first compound 10 µM

| Structure (SMILES) | IC50 [1] | IC50 [2] | IC50 [3] | IC50 [4] | IC50 [5] | viability, T/C [6] | viability, T/C [7] | viability, T/C [8] | viability, T/C [9] | viability, T/C [12] | viability, T/C [13] | viability, T/C [14] | viability, T/C [15] | viability, T/C [18] | viability, T/C [19] | viability, T/C [20] | viability, T/C [21] | viability, T/C [24] | viability, T/C [25] | viability, T/C [26] | further results |
| --- | --- | --- | --- | --- | --- | --- | --- | --- | --- | --- | --- | --- | --- | --- | --- | --- | --- | --- | --- | --- | --- |
| COc1cc(Nc2ncc3c(n2)-c2ccc(Cl)cc2C(c2c(F)cccc2OC)=NC3)ccc1C(=O)O + CC(CO)NC(=O)c1cc(-c2ccc(Cl)cc2)nn(-c2cnn(C)c2)c1=O | > 10 µM | > 10 µM | > 10 µM | > 10 µM | > 10 µM | 99.8% | 92.3% | 104% | 99.1% | 94.6% | 96% | 100% | 93.4% | 102% | 102% | 114% | 99% | 95.5% | 91.6% | 101% | viability, T/C [10]: 93.3%; viability, T/C [11]: 59.6%; viability, T/C [16]: 84.4%; viability, T/C [17]: 51.8%; viability, T/C [22]: 85.3%; viability, T/C [23]: 68.6%; viability, T/C [27]: 102%; viability, T/C [28]: 84.7%; viability, T/C [29]: 67.3%; viability, T/C [30]: 84.9%; viability, T/C [31]: 84%; viability, T/C [32]: 93.6%; viability, T/C [33]: 97.8%; viability, T/C [34]: 83.5%; viability, T/C [35]: 72.3% |
| O=C(C=Cc1cccc(S(=O)(=O)Nc2ccccc2)c1)NO |  |  |  |  |  |  |  |  |  |  |  |  |  |  |  |  |  |  |  |  | viability, T/C (compound 0.0316 µM): 95.1% and 99% and 103%; viability, T/C (compound 0.1 µM): 109% and 96.7% and 106%; viability, T/C (compound 0.316 µM): 91.4% and 95.8% and 88.1%; viability, T/C (compound 1 µM): 73.5% and 71.2% and 72.4%; viability, T/C (compound 3.16 µM): 49.8% and 26% and 40.5%; viability, T/C (compound 10 µM): 1.74% and 0.77% and 1.35%; IC50 (curve of compound): 2.91 µM and 1.73 µM and 2.23 µM |
| CC1COCCN1c1cc(C2(S(C)(=N)=O)CC2)nc(-c2ccnc3[nH]ccc23)n1 (centres undefined) |  |  |  |  |  |  |  |  |  |  |  |  |  |  |  |  |  |  |  |  | viability, T/C (compound 0.0316 µM): 105% and 94.7% and 106%; viability, T/C (compound 0.1 µM): 108% and 91.7% and 112%; viability, T/C (compound 0.316 µM): 119% and 99.9% and 103%; viability, T/C (compound 1 µM): 105% and 89.6% and 108%; viability, T/C (compound 3.16 µM): 104% and 76.3% and 81.6%; viability, T/C (compound 10 µM): 60.3% and 48.3% and 55.5%; IC50 (curve of compound): > 10 µM and 9.32 µM |
| COc1cc(C2c3cc4c(cc3C(OC3OC5COC(C)OC5C(O)C3O)C3COC(=O)C23)OCO4)cc(OC)c1O (centres undefined) + Cc1cncc(-c2nc(NCCc3c[nH]c4ccccc34)c3ncn(C(C)C)c3n2)c1 | > 10 µM | > 10 µM | > 10 µM | 1.86 µM | < 0.0316 µM | 108% | 101% | 89% | 80.7% | 108% | 101% | 94.3% | 77% | 96.9% | 101% | 93% | 85.8% | 64% | 64.1% | 61.5% | viability, T/C [10]: 88.5%; viability, T/C [11]: 63.9%; viability, T/C [16]: 76.9%; viability, T/C [17]: 61.3%; viability, T/C [22]: 73.2%; viability, T/C [23]: 63%; viability, T/C [27]: 49%; viability, T/C [28]: 49.3%; viability, T/C [29]: 37.8%; viability, T/C [30]: 6.72%; viability, T/C [31]: 7.12%; viability, T/C [32]: 5.72%; viability, T/C [33]: 3.77%; viability, T/C [34]: 4.01%; viability, T/C [35]: 4.25% |
| Nc1ccccc1NC(=O)c1ccc(CNC(=O)OCc2cccnc2)cc1 + Cc1ccccc1N=Nc1ccc(NC(=O)c2ccnn2C)c(C)c1 | 1.32 µM | 1.3 µM | 1.48 µM | 1.48 µM | 1.32 µM | 100% | 90.9% | 85.2% | 62.2% | 100% | 86.2% | 82.5% | 62.1% | 97.6% | 95.2% | 95.5% | 66.4% | 89.5% | 79.6% | 93.3% | viability, T/C [10]: 16.1%; viability, T/C [11]: 0.74%; viability, T/C [16]: 16.4%; viability, T/C [17]: 1.06%; viability, T/C [22]: 17.6%; viability, T/C [23]: 1.6%; viability, T/C [27]: 66.2%; viability, T/C [28]: 16.9%; viability, T/C [29]: 1.24%; viability, T/C [30]: 61%; viability, T/C [31]: 62.5%; viability, T/C [32]: 64.9%; viability, T/C [33]: 59.5%; viability, T/C [34]: 19.6%; viability, T/C [35]: 1.69% |
| Nc1ncn(C2CC(O)C(CO)O2)c(=O)n1 (centres undefined) + Cc1cncc(-c2nc(NCCc3c[nH]c4ccccc34)c3ncn(C(C)C)c3n2)c1 | > 1 µM | > 1 µM | > 1 µM | > 1 µM | < 0.00316 µM | 111% | 112% | 108% | 106% | 119% | 111% | 106% | 102% | 112% | 108% | 112% | 108% | 82.6% | 74.4% | 77.4% | viability, T/C (second compound 0.1 µM, first compound 0.00316 µM): 105%; viability, T/C (second compound 0.1 µM, first compound 0.01 µM): 114%; viability, T/C (second compound 0.316 µM, first compound 0.00316 µM): 116%; viability, T/C (second compound 0.316 µM, first compound 0.01 µM): 110%; viability, T/C (second compound 1 µM, first compound 0.00316 µM): 109%; viability, T/C (second compound 1 µM, first compound 0.01 µM): 105%; viability, T/C (second compound 3.16 µM, first compound 0.00316 µM): 73.1%; viability, T/C (second compound 3.16 µM, first compound 0.01 µM): 76.2%; viability, T/C [27]: 75.7%; viability, T/C (second compound 10 µM, first compound 0.00316 µM): 6.02%; viability, T/C (second compound 10 µM, first compound 0.01 µM): 6.62%; viability, T/C [30]: 6.65%; viability, T/C [31]: 6.53%; viability, T/C [32]: 6.26%; viability, T/C [33]: 6.45% |
